The source of these data is patent US5766848A (Synaptic Pharmaceutical Corporation, priority 1994, dated 1998).

One experiment relates to neuronal cultures. Nature of the experiment: Inhibition of [3H]GABA uptake in primary rat neuronal cultures. It is filed as cell-based. On the procedure: Brains were removed aseptically from E17 embryonic Sprague-Dawley rats brains, carefully dissected free of meninges, and kept on ice. A single-cell suspension was made by mincing the brains, followed by trituration through a serological pipet. […] On day three cytosine β-D-arabinofuransoside (3 μM) was added to control the proliferation of non-neuronal cells. The cultures were used for transport assay approximately one week after plating.
(§1) Data represent means±SEM.

The test system of the next experiment is Type 1 astrocytes. Nature of the experiment: Inhibition of [3H]GABA uptake in Type 1 astrocyte cultures. Conditions: read-out: IC50, Type 1 astrocytes, inhibition of [3H]GABA uptake. Type of experiment: cell-based, rat. How it is done: Preparation of primary rat astrocyte cell cultures: Primary glial cultures were established from newborn Sprague-Dawley rat brains. Brains minus cerebella were removed aseptically and carefully dissected free of meninges. […] The cells were dissociated by trituration through a serological pipet. Separate procedures were then used for the preparation of Type-1 and O-2A/Type-2 astrocyte cultures, as will now be described.
For the preparation of Type-1 astrocyte cultures, cells were plated onto uncoated 75 cm^2 flasks at low density (1 brain per 10 flasks, or approximately 8×10^4 cells/cm^2). The medium was changed the following day and twice a week thereafter.
as §1

The subject of a further experiment is rat brain aggregates. Nature of the experiment: Inhibition of [3H]GABA uptake in rat brain aggregates. Type of experiment: cell-based. Conditions: read-out: IC50, control, inhibition of [3H]GABA uptake in rat brain aggregates. How it is done:
Briefly, adult rat brains were removed from the skull and the cerebral cortex was dissected and placed in ice-cold HBS. […] The preparation was washed once by centrifugation, then resuspended in HBS.
The filters were washed with ice-cold HBS, punched into vials, and radioactivity determined by scintillation counting. Protein was determined in an aliquot of the aggregate preparation using the BIO-RAD protein assay kit.
as §1

In experiment [1] the target is T1, human BGT-1 (Homo sapiens, UniProt P48065).
T1 sequence (P48065 1-614 C10Y): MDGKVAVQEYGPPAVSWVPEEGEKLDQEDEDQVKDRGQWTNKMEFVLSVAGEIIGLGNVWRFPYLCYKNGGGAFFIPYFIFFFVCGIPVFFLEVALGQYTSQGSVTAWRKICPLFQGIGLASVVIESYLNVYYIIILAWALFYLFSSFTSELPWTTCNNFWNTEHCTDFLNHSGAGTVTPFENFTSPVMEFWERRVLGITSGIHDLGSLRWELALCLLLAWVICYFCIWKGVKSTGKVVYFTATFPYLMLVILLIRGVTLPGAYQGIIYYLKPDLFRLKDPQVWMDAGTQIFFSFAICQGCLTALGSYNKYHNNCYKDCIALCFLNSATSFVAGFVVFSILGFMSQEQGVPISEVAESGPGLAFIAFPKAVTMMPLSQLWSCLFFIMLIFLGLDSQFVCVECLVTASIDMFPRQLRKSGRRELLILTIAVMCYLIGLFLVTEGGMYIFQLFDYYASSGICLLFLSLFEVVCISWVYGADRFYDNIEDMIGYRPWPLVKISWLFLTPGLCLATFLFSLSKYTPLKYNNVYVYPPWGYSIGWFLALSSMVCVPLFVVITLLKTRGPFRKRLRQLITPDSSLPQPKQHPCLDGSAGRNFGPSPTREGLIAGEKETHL
The experiment can be described thus: cell-based.
Method: (§2) Cells were grown under standard conditions (37° C., 5% CO2) in Dulbecco's modified Eagles's medium (GIBCO, Grand Island, N.Y.).
(§3) After 10 minutes the medium was removed and unlabeled drugs in HBS were added (450 μl/well). […] Plates were incubated at 37° C. for 10 minutes, then washed rapidly 3× with ice-cold HBS, using a 24-position plate washer (Brandel, Gaithersburg, Mass.; model PW-12). Cells were solubilized with 0.05% sodium deoxycholate/0.1N NaOH (0.25 ml/well), an aliquot neutralized with 1N HCl, and radioactivity was determined by scintillation counting. Protein was quantified in an aliquot of the solubilized cells using a BIO-RAD protein assay kit, according to the manufacturer's directions.
(§4) Data Analysis: Competition curves were conducted in duplicate, using 10 concentrations of unlabeled drug. […] All data throughout the paper represent means±SEM.
(§5) Cells were grown under standard conditions (37° C., 5% CO2) in DMEM (Dulbecco's modified Eagles's medium; GIBCO, Grand Island, N.Y.).
(§6) Cells grown in 24-well plates were washed 3× with HEPES-buffered saline (HBS, in mM: NaCl, 150; HEPES, 20; CaCl2, 1; glucose, 10; KCl, 5; MgCl2 1; pH 7.4) and allowed to equilibrate on a 37° C. slide warmer. After 10 minutes the medium was removed and unlabeled drugs in HBS were added (450 μl/well). […] Plates were incubated at 37° C. for 10 minutes, then washed rapidly 3× with ice-cold HBS, using a 24-position plate washer (Brandel, Gaithersburg, Mass.; model PW-12). Cells were solubilized with 0.05% sodium deoxycholate/0.1N NaOH (0.25 ml/well), an aliquot neutralized with 1N HCl, and radioactivity was determined by scintillation counting. Protein was quantified in an aliquot of the solubilized cells using a BIO-RAD protein assay kit, according to the manufacturer's directions.
(§7) Competition curves were conducted in duplicate, using 10 concentrations of unlabeled drug. […] All data throughout the paper represent means±S.E.M.

The target in experiment [2] is T2, mouse GAT-2 (Mus musculus, UniProt P31651).
T2 sequence (P31651 1-614): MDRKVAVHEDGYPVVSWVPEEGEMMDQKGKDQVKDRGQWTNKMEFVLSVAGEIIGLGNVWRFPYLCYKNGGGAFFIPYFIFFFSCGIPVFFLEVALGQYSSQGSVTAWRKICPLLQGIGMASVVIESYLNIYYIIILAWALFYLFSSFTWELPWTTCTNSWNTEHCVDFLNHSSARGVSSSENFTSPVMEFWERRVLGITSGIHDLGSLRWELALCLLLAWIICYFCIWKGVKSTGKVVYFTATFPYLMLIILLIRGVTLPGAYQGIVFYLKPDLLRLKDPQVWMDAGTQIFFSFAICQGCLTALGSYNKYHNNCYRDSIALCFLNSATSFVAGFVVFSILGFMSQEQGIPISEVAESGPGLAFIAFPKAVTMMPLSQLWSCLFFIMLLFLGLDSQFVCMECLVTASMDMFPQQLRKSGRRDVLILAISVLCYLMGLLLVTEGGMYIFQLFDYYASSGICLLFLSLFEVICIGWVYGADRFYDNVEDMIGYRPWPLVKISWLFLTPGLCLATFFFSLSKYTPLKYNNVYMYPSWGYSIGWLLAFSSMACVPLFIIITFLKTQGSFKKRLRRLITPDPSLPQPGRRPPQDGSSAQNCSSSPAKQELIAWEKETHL
Details: host or cells: oocytes (Lopez-Corcuera et al., 1992). As to conditions: read-out: IC50, mouse GAT-2, inhibition of [3H]GABA uptake; oocytes (Lopez-Corcuera et al., 1992); except GABA estimated from percent inhibition at one or two concentrations; cited from earlier work.

Experiment [3] relates to GAT-2 and GAT-3. Nature of the experiment: Inhibition of [3H]GABA uptake at cloned GAT-2 and GAT-3, text summary. As to conditions: read-out: IC50s at GAT-2 and GAT-3 (range); range over clones, regardless of species.
Method: as §5, §6, §7
Experiment [4] deals with T2, mouse GAT-2. As to conditions: from Table 1.
In the next experiment the test system is dog BGT-1. Conditions: read-out: IC50, dog VGT-1, inhibition of [3H]GABA uptake; oocytes (Yamauchi et al., 1992); except GABA estimated from percent inhibition at a single concentration; cited from earlier work.
The next experiment concerns the target T3, human GAT-3 (Homo sapiens, UniProt P48066).
T3 construct: expressed in transfected cells
T3 sequence (P48066 1-632): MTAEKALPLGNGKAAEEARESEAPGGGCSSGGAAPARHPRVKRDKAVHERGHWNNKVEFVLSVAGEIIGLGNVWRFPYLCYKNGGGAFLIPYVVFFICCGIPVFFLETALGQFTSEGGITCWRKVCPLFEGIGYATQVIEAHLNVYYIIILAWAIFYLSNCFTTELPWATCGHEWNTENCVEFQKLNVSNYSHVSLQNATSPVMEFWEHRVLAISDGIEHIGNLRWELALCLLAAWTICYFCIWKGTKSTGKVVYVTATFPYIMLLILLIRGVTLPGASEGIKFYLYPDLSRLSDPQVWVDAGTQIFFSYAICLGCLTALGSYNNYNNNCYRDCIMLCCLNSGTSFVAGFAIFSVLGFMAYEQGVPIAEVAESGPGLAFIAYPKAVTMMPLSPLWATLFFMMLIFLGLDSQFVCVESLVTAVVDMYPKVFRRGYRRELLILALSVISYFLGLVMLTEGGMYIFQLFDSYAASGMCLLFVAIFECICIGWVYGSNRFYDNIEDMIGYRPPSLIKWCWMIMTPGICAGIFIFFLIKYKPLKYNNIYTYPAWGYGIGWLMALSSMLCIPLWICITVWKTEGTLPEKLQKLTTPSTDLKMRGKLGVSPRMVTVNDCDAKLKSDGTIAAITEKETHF
The experiment can be described thus: Inhibition of [3H]GABA uptake, human GAT-3 stable LM(tk-) cell line. Conditions: read-out: IC50, human GAT-3, inhibition of [3H]GABA uptake, Table 9, means ± S.E.M. Type of experiment: cell-based.

The test system of another experiment is brain synaptosomes. As to conditions: Ali et al. (1985); cited from earlier work.
For experiment [5] the following is noted: literature reports; cited from earlier work.
A further experiment concerns the target T4, rat GAT-2 (Rattus norvegicus, UniProt P31646).
T4 construct: expressed in transfected cells
T4 sequence (P31646 1-602): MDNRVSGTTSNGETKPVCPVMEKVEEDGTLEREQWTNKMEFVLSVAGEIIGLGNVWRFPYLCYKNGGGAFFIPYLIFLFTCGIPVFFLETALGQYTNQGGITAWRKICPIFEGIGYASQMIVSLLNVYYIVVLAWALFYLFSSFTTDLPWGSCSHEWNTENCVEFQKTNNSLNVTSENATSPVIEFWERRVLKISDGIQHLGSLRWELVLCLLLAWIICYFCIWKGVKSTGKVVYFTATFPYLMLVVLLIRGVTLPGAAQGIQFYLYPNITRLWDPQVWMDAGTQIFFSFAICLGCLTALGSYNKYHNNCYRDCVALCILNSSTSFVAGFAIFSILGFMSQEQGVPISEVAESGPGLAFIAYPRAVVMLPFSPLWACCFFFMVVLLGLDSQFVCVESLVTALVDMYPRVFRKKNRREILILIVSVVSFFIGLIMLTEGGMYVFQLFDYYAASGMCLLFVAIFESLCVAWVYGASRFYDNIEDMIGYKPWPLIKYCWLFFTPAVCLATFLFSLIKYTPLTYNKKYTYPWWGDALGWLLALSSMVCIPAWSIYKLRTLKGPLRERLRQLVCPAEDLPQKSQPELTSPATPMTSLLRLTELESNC
Nature of the experiment: Inhibition of [3H]GABA uptake, rat GAT-2 stable LM(tk-) cell line. Type of experiment: cell-based. As to conditions: read-out: IC50, rat GAT-2, inhibition of [3H]GABA uptake, Table 9, means ± S.E.M.

The next experiment deals with human GAT-1 (Homo sapiens, UniProt P30531). As to conditions: read-out: IC50, human GAT-1, inhibition of [3H]GABA uptake; Table 9; stable LM(tk-) cell line; means ± S.E.M.
Chain of human GAT-1 (P30531 whole entry): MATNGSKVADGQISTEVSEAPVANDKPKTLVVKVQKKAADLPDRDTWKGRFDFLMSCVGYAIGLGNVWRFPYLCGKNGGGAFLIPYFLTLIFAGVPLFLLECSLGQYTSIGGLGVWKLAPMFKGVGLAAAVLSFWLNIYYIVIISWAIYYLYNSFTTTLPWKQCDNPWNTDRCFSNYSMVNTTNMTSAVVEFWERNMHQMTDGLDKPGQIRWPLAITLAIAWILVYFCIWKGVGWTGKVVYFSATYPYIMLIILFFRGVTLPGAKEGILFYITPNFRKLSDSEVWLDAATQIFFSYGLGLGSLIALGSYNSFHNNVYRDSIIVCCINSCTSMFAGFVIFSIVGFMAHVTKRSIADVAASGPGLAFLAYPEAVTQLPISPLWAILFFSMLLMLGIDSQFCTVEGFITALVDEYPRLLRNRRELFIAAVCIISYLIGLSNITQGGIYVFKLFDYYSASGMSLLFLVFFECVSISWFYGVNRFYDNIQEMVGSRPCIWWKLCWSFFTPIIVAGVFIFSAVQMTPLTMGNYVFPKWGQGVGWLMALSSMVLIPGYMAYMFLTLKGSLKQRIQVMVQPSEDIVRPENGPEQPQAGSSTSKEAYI
The subject of another experiment is GAT-1. As to conditions: range over compounds and human/rat clones.
Experiment [6] relates to GAT-2 and GAT-3. As to conditions: range over clones, regardless of species.
Method: as §5, §6, §7
The target in experiment [7] is T1, human BGT-1. Conditions: read-out: IC50, hBGT-1, inhibition of [3H]GABA uptake.
Method: as §2, §3, §4, §5, §6, §7
Setting [8] is: Rattus norvegicus, Astrocyte, 3 h.
Where [9] appears, read: IC50, hBGT-1, inhibition of [3H]GABA uptake.
The mark [10] stands for this setting: IC50, hBGT-1, inhibition of [3H]GABA uptake, stably transfected LM(tk-), 50 nM [3H]GABA, mean ± standard error of at least three experiments.

“And” between values parts separate entries of the source, which are not always exact repeats. Identical values can stand only once. Counter-ions that a name gives are not always drawn. Like-named read-outs stand apart in the source and are kept apart here.

Method for human GAT-1: as §5, §6, §7
Method for human GAT-3: as §5, §6, §7
Method for rat GAT-2: as §5, §6, §7

On to `NCCS(=O)(=O)O` [taurine], for which the IC50 in the experiment with neuronal cultures (Neuron, read-out: IC50, Neurons, inhibition of [3H]GABA uptake) is 8.3 mM; in the experiment on Type 1 astrocytes (setting [8]), approximately 50 µM; with Type 1 astrocytes, 47 ± 10 µM; in the experiment with rat brain aggregates (Rattus norvegicus), 64 mM; at human BGT-1 [1] (setting [9]), 10600 µM; against human BGT-1 [1] (IC50 at hBGT-1 as stated in text), more than 10000 µM.

With `O=C(O)C1=CCCN(CCON=C(c2ccccc2)c2ccccc2)C1` [NNC-711, 1-(2-(((diphenylmethylene)amino)oxy)ethyl)-1,2,4,6-tetrahydro-3-pyridinecarboxylic acid hydrochloride], in the experiment on neuronal cultures (read-out: specific [3H]GABA uptake that persisted in neuronal cultures), the activity at 10 µM came to 31 ± 1%. The IC50 against human BGT-1 [1] (setting [10]) fell in the range of 160 to 600 µM.

Consider `C=C[C@H]1C[N@@]2CC[C@H]1C[C@@H]2[C@@H](O)c1ccnc2ccc(OC)cc12` [quinidine], for which the IC50 was 1190 µM against human BGT-1 [1] (setting [9]) and 0.049 mM on mouse GAT-2 [2].

With `N[C@@H]1CCC[C@H](C(=O)O)C1` (relative stereo) [ACHC, cis-3-aminocyclohexanecarboxylic acid], the IC50 on human BGT-1 [1] (setting [9]) was 1850 µM.

In the case of `NCCC(=O)O` [β-alanine], the IC50 is 1.9 mM on mouse GAT-2 [2]; 19 to 110 µM in the experiment on GAT-2 and GAT-3 [3].

For `NCCS(=O)O` [hypotaurine], on human BGT-1 [1] (setting [9]), the IC50 was 160 to 600 µM and 380 µM.

As to `C[N+](C)(C)CC(=O)O` [betaine], the IC50 against human BGT-1 [1] (setting [10]) was 934 ± 22 µM; against human BGT-1 [1] (IC50 at hBGT-1 as stated in text, stable LM(tk-) cells, [3H]GABA uptake) it was 1000 to 2000 µM; at mouse GAT-2 [2] it was 0.206 mM. Further, the “selectivity (potency) for mouse BGT-1 as compared to dog BGT-1” value on mouse GAT-2 [4] was determined as 2 fold. Besides, the “selectivity (potency) for mouse BGT-1 as compared to human BGT-1” value on mouse GAT-2 [4] is 5 fold.

Take `NCC[C@H](N)C(=O)O` [L-DABA, L-(2,4)diaminobutyric acid]: the IC50 in the experiment with Type 1 astrocytes (setting [8]) is 3400 µM; with dog BGT-1, 4.7 mM; against human BGT-1 [1] (setting [9]), 160 to 600 µM and 354 µM.

For the compound `O=C(O)C1CCCNC1` (racemic) [(±)-nipecotic acid, (R,S)-nipecotic acid], in the experiment with dog BGT-1, the IC50 was 4.7 mM.

Consider `N=C(N)NCCS(=O)(=O)O` [GES, guanidinoethanesulfonic acid], for which the IC50 on human BGT-1 [1] (setting [10]) was found to be 1520 µM.

On to `O=C(O)C1CCCN(CCC=C(c2ccccc2)c2ccccc2)C1` (stereo not shown) [SK&F 89976-A, N-(4,4-diphenyl-3-butenyl)-3-piperidinecarboxylic acid], for which, at human GAT-3, the IC50 stood at 944 ± 259 µM. In addition, the “increase in potency over the parent compound (nipecotic acid or guvacine)” value in the experiment with brain synaptosomes is given as 20 fold. The “anticonvulsive activity in animals” value in experiment [5] is reported as “display anticonvulsive activity”.

For `O=C(CCc1ccc(O)cc1)c1c(O)cc(O)cc1O` [phloretin], the IC50 on human BGT-1 [1] (setting [10]) is 160 to 600 µM and 160 µM.

For the compound `O=C(O)C1=CCCNC1` [guvacine], the IC50 on rat GAT-2 was 58 ± 5 µM; at human GAT-3, 119 ± 24 µM; on human GAT-1 it was 14 ± 3 µM; at mouse GAT-2 [2] it was 2.8 mM. In addition, the “IC50s at GAT-1 (range)” value in the experiment with GAT-1 was 14 to 39 µM. In addition, the “IC50s at GAT-2 and GAT-3 (range)” value with GAT-2 and GAT-3 [6] fell in the range of 102 to 378 µM.

As to `O=C(O)C1=CCCN(CCC=C(c2ccccc2)c2ccccc2)C1` [SK&F 100330-A], the “increase in potency over the parent compound (nipecotic acid or guvacine)” value in the experiment on brain synaptosomes is 20 fold.

Regarding hydroxynipecotic acid, the figures for the IC50 with rat brain aggregates (absence of NNC-711) and at human BGT-1 [7] were 0.01 ± 0.001 mM and 2.59 mM, respectively.
